Columns and labels:
Assay type in all cases: in vivo
Abutilon theophrasti [1] = assay: Pre-emergence herbicidal action against ABUTH; conditions: visual score after 3 weeks vs untreated controls
In short: (§1)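 Seeds sown in sandy loam, soil-covered; compound sprayed on soil surface pre-emergence. Application: WP/EC, 600–800 l/ha, 0.2% wetting agent. Readout: visual % damage at 3 weeks.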

Alopecurus myosuroides [2] = assay: Pre-emergence herbicidal action against ALOMY; conditions: 80 g/ha; visual score after 3 weeks vs untreated controls
In short: as §1

Amaranthus retroflexus [3] = assay: Pre-emergence herbicidal action against AMARE; conditions: visual score after 3 weeks vs untreated controls
In short: as §1

Avena fatua [4] = assay: Pre-emergence herbicidal action against AVEFA; conditions: 80 g/ha; visual score after 3 weeks vs untreated controls
In short: as §1

Echinochloa crus-galli [5] = assay: Pre-emergence herbicidal action against ECHCG; conditions: 80 g/ha; visual score after 3 weeks vs untreated controls
In short: as §1

Matricaria inodora [6] = assay: Pre-emergence herbicidal action against MATIN; conditions: visual score after 3 weeks vs untreated controls
In short: as §1

Digitaria sanguinalis [7] = assay: Pre-emergence herbicidal action against DIGSA
In short: as §1

Setaria viridis [8] = assay: Pre-emergence herbicidal action against SETVI; conditions: 80 g/ha
In short: as §1

Veronica persica [9] = assay: Pre-emergence herbicidal action against VERPE
In short: as §1

Viola tricolor [10] = assay: Pre-emergence herbicidal action against VIOTR
In short: as §1

Abutilon theophrasti [11] = assay: Post-emergence herbicidal action against ABUTH
In short: (§2)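 Sandy loam, greenhouse; treatment 2–3 weeks after sowing, one-leaf stage. Aqueous suspension or emulsion from WP/EC sprayed on foliage (600–800 l/ha, 0.2% wetting agent). Readout: visual % action, ~3 weeks.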

Alopecurus myosuroides [12] = assay: Post-emergence herbicidal action against ALOMY
In short: as §2

Amaranthus retroflexus [13] = assay: Post-emergence herbicidal action against AMARE; conditions: visual assessment about 3 weeks after treatment
In short: as §2

Avena fatua [14] = assay: Post-emergence herbicidal action against AVEFA; conditions: 20 g/ha, visual assessment about 3 weeks after treatment
In short: as §2

Echinochloa crus-galli [15] = assay: Post-emergence herbicidal action against ECHCG; conditions: visual assessment about 3 weeks after treatment
In short: as §2

Matricaria inodora [16] = assay: Post-emergence herbicidal action against MATIN; conditions: visual assessment about 3 weeks after treatment
In short: as §2

Digitaria sanguinalis [17] = assay: Post-emergence herbicidal action against DIGSA
Experimental: Seeds of monocotyledonous and dicotyledonous weed and crop plants are laid out in sandy loam soil in wood-fiber pots, covered with soil and cultivated in a greenhouse under good growth conditions. 2 to 3 weeks after sowing, the test plants are treated at the one-leaf stage. The compounds of the invention, formulated in the form of wettable powders (WP) or as emulsion concentrates (EC), are then sprayed onto the green parts of the plants in the form of an aqueous suspension or emulsion at a water application rate equivalent to 600 to 800 l/ha, with addition of 0.2% wetting agent. After the test plants have been left to stand in the greenhouse under optimal growth conditions for about 3 weeks, the action of the preparations is assessed visually in comparison to untreated controls (herbicidal action in percent (%): 100% activity=the plants have died, 0% activity=like control plants). […] The tables below illustrate, in an illustrative manner, the post-emergence herbicidal action of the compounds of the invention, the herbicidal activity being stated in percent.

Viola tricolor [18] = assay: Post-emergence herbicidal action against VIOTR
In short: as §2

Pharbitis purpurea = assay: Post-emergence herbicidal action against PHBPU; conditions: visual assessment about 3 weeks after treatment
In short: as §2

Setaria viridis [19] = assay: Post-emergence herbicidal action against SETVI; conditions: visual assessment about 3 weeks after treatment
In short: as §2

Veronica persica [20] = assay: Post-emergence herbicidal action against VERPE; conditions: 20 g/ha, visual assessment about 3 weeks after treatment
In short: as §2

Structure (SMILES)	Pre-emergence action against ABUTH (Abutilon theophrasti [1]; 80 g/ha)	Pre-emergence action against ALOMY (Alopecurus myosuroides [2])	Pre-emergence action against AMARE (Amaranthus retroflexus [3]; 20 g/ha)	Pre-emergence action against AMARE (Amaranthus retroflexus [3]; 80 g/ha)	Pre-emergence action against ECHCG (Echinochloa crus-galli [5])	Pre-emergence action against MATIN (Matricaria inodora [6]; 80 g/ha)	Pre-emergence action against DIGSA (Digitaria sanguinalis [7]; 80 g/ha)	Pre-emergence action against SETVI (Setaria viridis [8])	Pre-emergence action against VIOTR (Viola tricolor [10]; 20 g/ha)	Pre-emergence action against VIOTR (Viola tricolor [10]; 80 g/ha)	Post-emergence action against ALOMY (Alopecurus myosuroides [12]; 20 g/ha)	Post-emergence action against AMARE in % (Amaranthus retroflexus [13]; 5 g/ha)	Post-emergence action against AMARE in % (Amaranthus retroflexus [13]; 20 g/ha)	Post-emergence action against ECHCG in % (Echinochloa crus-galli [15]; 20 g/ha)	Post-emergence action against DIGSA in % (Digitaria sanguinalis [17]; 5 g/ha)	Post-emergence action against DIGSA in % (Digitaria sanguinalis [17]; 20 g/ha)	Post-emergence action against VIOTR in % (Viola tricolor [18]; 20 g/ha)	Pre-emergence action against DIGSA (Digitaria sanguinalis [7]; 20 g/ha)	Post-emergence action against SETVI in % (Setaria viridis [19]; 5 g/ha)	Post-emergence action against SETVI in % (Setaria viridis [19]; 20 g/ha)	other results
CCN(CC)C(=O)c1c(C(F)(F)F)ccc(C(=O)Nc2nnnn2C)c1Cl [Example 1-135]	100%	100%	100%	100%	90%	100%	100%	100%	100%	100%	90%	80%	80%	90%	90%	90%	90%				Pre-emergence action against ABUTH (Abutilon theophrasti [1]; 20 g/ha): 100%; Pre-emergence action against AVEFA (Avena fatua [4]): 90%; Pre-emergence action against MATIN (Matricaria inodora [6]; 20 g/ha): 90%; Pre-emergence action against VERPE (Veronica persica [9]; 80 g/ha): 90%; Post-emergence action against ABUTH (Abutilon theophrasti [11]; 5 g/ha): 80%; Post-emergence action against ABUTH (Abutilon theophrasti [11]; 20 g/ha): 90%; Post-emergence action against ALOMY (Alopecurus myosuroides [12]; 5 g/ha): 80%; Post-emergence action against AVEFA in % (Avena fatua [14]): 80%; Post-emergence action against ECHCG in % (Echinochloa crus-galli [15]; 5 g/ha): 80%; Post-emergence action against MATIN in % (Matricaria inodora [16]; 20 g/ha): 80%
CCn1nnnc1NC(=O)c1ccc(C(F)(F)F)c(C(=O)N(C)C2CC2)c1C [Example 2-21]	100%		100%	100%	100%	100%	100%	100%	100%	100%	90%	100%	100%	90%	80%	90%	100%	100%	80%	100%	Pre-emergence action against AVEFA (Avena fatua [4]): 80%; Pre-emergence action against MATIN (Matricaria inodora [6]; 20 g/ha): 90%; Pre-emergence action against VERPE (Veronica persica [9]; 20 g/ha): 80%; Pre-emergence action against VERPE (Veronica persica [9]; 80 g/ha): 100%; Post-emergence action against ALOMY (Alopecurus myosuroides [12]; 5 g/ha): 80%; Post-emergence action against ECHCG in % (Echinochloa crus-galli [15]; 5 g/ha): 90%; Post-emergence action against MATIN in % (Matricaria inodora [16]; 5 g/ha): 80%; Post-emergence action against MATIN in % (Matricaria inodora [16]; 20 g/ha): 90%; Post-emergence action against PHBPU in % (Pharbitis purpurea; 20 g/ha): 90%; Post-emergence action against VIOTR in % (Viola tricolor [18]; 5 g/ha): 100%
CCn1nnnc1NC(=O)c1ccc(C(F)(F)F)c(C(=O)N(C)C)c1C [Example 2-19]	100%	90%		100%	90%	90%	100%	100%	80%	100%	80%	80%	90%	90%		90%	100%	100%	80%	80%	Pre-emergence action against ABUTH (Abutilon theophrasti [1]; 20 g/ha): 80%; Pre-emergence action against VERPE (Veronica persica [9]; 80 g/ha): 90%; Post-emergence action against ABUTH (Abutilon theophrasti [11]; 20 g/ha): 100%; Post-emergence action against MATIN in % (Matricaria inodora [16]; 20 g/ha): 80%; Post-emergence action against VERPE in % (Veronica persica [20]): 80%; Post-emergence action against VIOTR in % (Viola tricolor [18]; 5 g/ha): 80%
CCN(CC)C(=O)c1c(C(F)(F)F)ccc(C(=O)Nc2nnnn2CC)c1Cl [Example 2-135]	100%	90%	100%	100%	100%	100%	90%	100%	100%	100%	90%	80%	90%	80%	80%	90%		80%		80%	Pre-emergence action against ABUTH (Abutilon theophrasti [1]; 20 g/ha): 90%; Pre-emergence action against MATIN (Matricaria inodora [6]; 20 g/ha): 90%; Post-emergence action against AVEFA in % (Avena fatua [14]): 80%; Post-emergence action against MATIN in % (Matricaria inodora [16]; 20 g/ha): 80%
CCN(CC)C(=O)c1c(C(F)(F)F)ccc(C(=O)Nc2nnnn2C)c1C [Example 1-31]	100%	100%	100%	100%	80%	100%	100%	100%		100%	90%	90%	90%	90%	80%	90%	90%	100%	90%	100%	Pre-emergence action against VERPE (Veronica persica [9]; 80 g/ha): 90%; Post-emergence action against ALOMY (Alopecurus myosuroides [12]; 5 g/ha): 80%; Post-emergence action against AVEFA in % (Avena fatua [14]): 80%; Post-emergence action against ECHCG in % (Echinochloa crus-galli [15]; 5 g/ha): 90%; Post-emergence action against PHBPU in % (Pharbitis purpurea; 5 g/ha): 90%; Post-emergence action against PHBPU in % (Pharbitis purpurea; 20 g/ha): 90%; Post-emergence action against VIOTR in % (Viola tricolor [18]; 5 g/ha): 80%
Cc1c(C(=O)Nc2nnnn2C)ccc(C(F)(F)F)c1C(=O)N(C)C [Example 1-19]	100%	80%	100%	100%	90%	90%	100%	100%		100%			100%	90%	90%	90%	80%		100%	100%	Pre-emergence action against ABUTH (Abutilon theophrasti [1]; 20 g/ha): 90%; Pre-emergence action against AVEFA (Avena fatua [4]): 80%; Post-emergence action against ABUTH (Abutilon theophrasti [11]; 5 g/ha): 90%; Post-emergence action against ABUTH (Abutilon theophrasti [11]; 20 g/ha): 100%; Post-emergence action against VERPE in % (Veronica persica [20]): 80%
CCN(C(=O)c1c(C(F)(F)F)ccc(C(=O)Nc2nnnn2C)c1C)C1CC1 [Example 1-32]	100%	90%	90%	100%	90%	100%	100%	100%	80%	100%	90%	90%	100%	100%	90%	90%	100%	90%	80%	90%	Post-emergence action against ALOMY (Alopecurus myosuroides [12]; 5 g/ha): 80%; Post-emergence action against AVEFA in % (Avena fatua [14]): 80%; Post-emergence action against ECHCG in % (Echinochloa crus-galli [15]; 5 g/ha): 100%; Post-emergence action against PHBPU in % (Pharbitis purpurea; 5 g/ha): 80%; Post-emergence action against PHBPU in % (Pharbitis purpurea; 20 g/ha): 90%; Post-emergence action against VIOTR in % (Viola tricolor [18]; 5 g/ha): 100%
